# Experimental data published in patent US20090105270A1, “Kinase inhibition and anticancer therapy” (priority 2007, published 2009).
# Columns and labels:
# [1] = molecular target: CHK1(h) (Homo sapiens, UniProt O14757); experiment: Upstate kinase activity inhibition assay CHK1(h)
# [2] = molecular target: PAK5(h) (Homo sapiens, UniProt Q9P286); experiment: Upstate kinase activity inhibition assay PAK5(h); settings: 40 min, read-out: percentage of enzyme activity that remains
# [3] = molecular target: MST2(h) (Homo sapiens, UniProt Q13188); experiment: Upstate kinase activity inhibition assay MST2(h); settings: 40 min, read-out: percentage of enzyme activity that remains
# MST2(h), sequence (Q13188 whole entry): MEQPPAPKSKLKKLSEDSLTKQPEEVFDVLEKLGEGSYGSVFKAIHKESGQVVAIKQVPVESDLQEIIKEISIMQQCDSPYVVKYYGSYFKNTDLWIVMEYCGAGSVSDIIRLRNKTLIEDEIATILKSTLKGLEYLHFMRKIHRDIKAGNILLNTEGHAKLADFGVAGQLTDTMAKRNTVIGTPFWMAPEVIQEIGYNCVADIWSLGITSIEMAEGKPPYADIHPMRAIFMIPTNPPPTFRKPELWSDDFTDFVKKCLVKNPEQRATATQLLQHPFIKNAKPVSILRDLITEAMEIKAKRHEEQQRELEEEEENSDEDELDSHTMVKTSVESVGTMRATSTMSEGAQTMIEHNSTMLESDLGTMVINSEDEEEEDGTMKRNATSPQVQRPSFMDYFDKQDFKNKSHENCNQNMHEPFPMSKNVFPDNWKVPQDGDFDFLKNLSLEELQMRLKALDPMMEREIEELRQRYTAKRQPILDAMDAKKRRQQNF
# CHK1(h), sequence (O14757 whole entry): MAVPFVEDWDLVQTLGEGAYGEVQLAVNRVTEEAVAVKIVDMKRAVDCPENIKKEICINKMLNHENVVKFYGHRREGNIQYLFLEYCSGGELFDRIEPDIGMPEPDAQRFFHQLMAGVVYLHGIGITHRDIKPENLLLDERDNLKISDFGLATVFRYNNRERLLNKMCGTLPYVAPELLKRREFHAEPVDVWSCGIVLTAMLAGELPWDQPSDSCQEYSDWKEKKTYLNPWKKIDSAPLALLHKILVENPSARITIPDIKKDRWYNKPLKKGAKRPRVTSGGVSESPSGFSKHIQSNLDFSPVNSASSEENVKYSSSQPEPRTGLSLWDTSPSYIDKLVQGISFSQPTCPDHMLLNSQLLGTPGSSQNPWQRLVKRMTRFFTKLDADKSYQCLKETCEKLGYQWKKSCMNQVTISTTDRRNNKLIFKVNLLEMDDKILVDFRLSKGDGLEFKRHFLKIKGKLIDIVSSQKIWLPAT
# PAK5(h), sequence (Q9P286 whole entry): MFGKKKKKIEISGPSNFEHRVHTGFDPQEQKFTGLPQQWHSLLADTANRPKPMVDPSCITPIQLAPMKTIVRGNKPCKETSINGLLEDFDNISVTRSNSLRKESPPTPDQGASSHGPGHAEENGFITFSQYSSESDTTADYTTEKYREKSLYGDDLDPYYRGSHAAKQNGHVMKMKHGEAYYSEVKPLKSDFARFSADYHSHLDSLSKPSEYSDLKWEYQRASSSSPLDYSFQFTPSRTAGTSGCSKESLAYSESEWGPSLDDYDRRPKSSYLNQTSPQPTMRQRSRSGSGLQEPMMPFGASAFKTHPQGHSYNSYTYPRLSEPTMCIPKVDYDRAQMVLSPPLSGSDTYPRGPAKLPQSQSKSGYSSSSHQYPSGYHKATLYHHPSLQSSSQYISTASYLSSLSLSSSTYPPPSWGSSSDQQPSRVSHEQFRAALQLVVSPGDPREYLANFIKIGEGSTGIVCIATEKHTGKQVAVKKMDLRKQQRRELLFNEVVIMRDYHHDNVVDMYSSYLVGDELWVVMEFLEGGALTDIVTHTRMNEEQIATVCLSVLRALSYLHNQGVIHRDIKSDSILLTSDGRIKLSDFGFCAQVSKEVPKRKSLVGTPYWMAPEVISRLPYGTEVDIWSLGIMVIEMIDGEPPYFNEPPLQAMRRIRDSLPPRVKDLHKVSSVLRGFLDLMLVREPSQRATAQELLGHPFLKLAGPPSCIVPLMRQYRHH
smiles,measurement,setting,value
"Cc1cc(Nc2cc(N3CCN(C)CC3)nc(Sc3ccc(NC(=O)C4CC4)cc3)n2)n[nH]1 [Compound E, Cyclopropane carboxylic acid {4-[4-(4-methyl-piperazin-1-yl)-6-(5-methyl-2H-pyrazol-3-ylamino)-pyrimidin-2-ylsulphanyl]-phenyl}-amide]",percentage of enzyme activity that remains,[1]; 0.2 μM Compound E,99%
same,percentage of enzyme activity that remains,[1]; 4 μM Compound E,92%
same,remaining activity at 0.2 µM,[2],93%
same,remaining activity at 4 µM,[2],68%
same,remaining activity at 0.2 µM,[3],92%
same,remaining activity at 4 µM,[3],74%
